According to US20230293562A1, “[…] COMBINATION OF GALNAC-OLIGO[…] AND SAPONIN, AND USES THEREOF” (SAPREME TECHNOLOGIES B.V., priority 2020, published 2023):
[BNANC] = BNA^NC bridged nucleic acid nucleoside; {ThiolC6} = thiol C6 linker; d = 2'-deoxy (DNA)

Legend:
Format in all cases: cell-based
[1] = test system: ApoB; test: ApoB RNA expression analysis (qPCR) in mouse primary hepatocytes; settings: 72 hrs incubation
Method: (§1) RNA from cells was isolated using TRI Reagent® Solution (Thermo Scientific) according to the manufacturer’s instruction. Conversion into cDNA was performed using iScript™ cDNA Synthesis Kit (BioRad) using standard protocols. ApoB expression levels and levels of specific hepatocyte housekeeping genes were determined using quantitative real-time PCR assays (qRT-PCR) using iTaq™ Universal SYBR® Green Supermix (BioRad) and the Light Cycler 480 (Roche Diagnostics, Rotkreuz, Switzerland) with specific DNA primers, listed in Table A4 (murine) and Table A2 (human). Analysis was done by the ΔCt method to determine ApoB expression relative to 2 hepatocyte-specific housekeeping control mRNAs. Each analysis reaction was performed in triplicate.
Cryopreserved primary mouse hepatocytes ([…] Cell Culture Technology GmbH, Germany) were thawed in hepatocyte thawing media (HTM, […] Cell Culture Technology GmbH, Germany) and washed 1x with hepatocyte wash media (HWM, […] Cell Culture Technology GmbH, Germany). Cells were re-suspended in hepatocyte plating media (HPM Cryo, […] Cell Culture Technology GmbH, Germany) at a density of approx. 0.275 × 10^6 cells/ml. […] Plating medium was replaced by 315 µl or 108 µl assay media (MHM, […] Cell Culture Technology GmbH, Germany), after which conjugates were added from a 10x concentrated stock solution in PBS.

[2] = test system: ApoB; test: ApoB RNA expression analysis in human primary hepatocytes; settings: read-out: IC50 ApoB gene silencing
Method: (§2) ApoBBNA (ApoBBNA#01, targeting human ApoB mRNA) was conjugated to trivalent-GalNAc ((GalNAc)3) (FIG. 6) and primary hepatocytes (ASGPR1^+) cells were treated with a range of concentrations of (GalNAc)3-ApoBBNA#01 with and without addition of 2000 nM SO1861. ApoB gene silencing in primary hepatocytes (ASGPR1^+) cells was determined.
(§3) ApoB gene silencing in primary hepatocytes (ASGPR1^+) cells was determined. […] The dotted line in the ApoBBNA#02 RNAiMAX indicates concentrations at which toxicity and cell death occurs.
as §1

[3] = test system: human primary hepatocytes (ASGPR1+); test: Cell viability assay on human primary hepatocytes; settings: + RNAiMAX
Method: as §2, §3
Briefly, the MTS solution was diluted 20× in DMEM without phenol red (PAN-Biotech GmbH) supplemented with 10% FBS. The cells were washed once with 200 µL/PBS well, after which 100 µL diluted MTS solution was added/well. The plate was incubated for approximately 20-30 minutes at 37° C. Subsequently, the OD at 492 nm was measured on a Thermo Scientific Multiskan FC plate reader (Thermo Scientific).

“ApoBBNA#02: murine and human sequence-compatible ApoB BNA^NC oligonucleotide 5′-GCattggtatTCA-3′ [SEQ ID NO: 12], fully phosphorothioated (antisense GCATTGGTATTCA; sugars from the 5' end [BNANC]2 d8 [BNANC]3, all phosphorothioate, 5' {ThiolC6}, methylation of C not given here)” was tested, and the “fold less potent in ApoB RNA downmodulation than (GalNAc)3-ApoB#02 BNA + 2000 nM SO1861-EMCH” value [1] was 100 - 667 fold, the IC50 ([1]; alone, without SO1861-EMCH, read-out: IC50 ApoB RNA expression inhibition) was 20 nM and the IC50 ([2]; RNAiMAX transfection) was 5 nM. For the same substance, the IC50 ([2]; alone, without SO1861-EMCH) was 200 nM and the IC50 [3] was 100 nM.
